From PubChem BioAssay (NCI) come the findings set out here.

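Step 1: Grow cells in 96-well plates. Step 2: Expose to compound for 48 hours at 5 concentrations. Step 3: Interpolate endpoints linearly; if unreached, use highest concentration. Abbreviation: GI50, concentration required for 50% inhibition of growth. Definition used: TGI = concentration required for complete inhibition of growth.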 Bounds are passed on as bounds.

The first assay concerns HCT-15 colon. Put plainly: NCI anticancer screen, dose series, 48 h.
For `COc1cc([N+](=O)[O-])c(OC)cc1-c1nc2sc(Cl)cn2c1/C=N/Nc1ccccn1`, the GI50 was 28.1 µM and the TGI was over 50 µM.

As to `CC(=O)N/N=C1\NC(=O)C[C@H]2[C@@H]3CC=C4C[C@@H](OC(C)=O)CC[C@]4(C)[C@H]3CC[C@]12C`, the TGI was over 100 µM.

The compound `C=C[C@@H]1C(CO)=CCC2[C@H]1CCC1C(C)(C)C(=O)CC[C@]21C` (stereo not given in full) gave a TGI of over 100 µM.

In turn, `COc1ccc2cc3c4cc5c(cc4cc[n+]3cc2c1OC)OCO5` returned a TGI of over 100 µM.

For the compound `CCN(CCO)CC1COc2ccccc2O1` (stereo not given), the TGI is over 100 µM.

Take `O=c1oc(-c2ccc(O)c(O)c2)cc2cccc(O)c12`: the TGI was over 100 µM.

The compound `C=CCNC(=S)/N=C/c1c(O)c2ccccc2oc1=O` showed a TGI of over 100 µM.

The compound `O=C(NCCCN(CCCCN(CCCNC(=O)C(F)(F)F)Cc1ccccc1)Cc1ccccc1)C(F)(F)F` registered a TGI of 24.9 µM.

In turn, `CC(=O)N(C(C)=O)C1=C2c3ccccc3N(S(=O)(=O)c3ccccc3)C2n2c(=O)n(-c3ccccc3)c(=O)n2C1` (stereo not given) gave a TGI of over 100 µM.

On to `Clc1ccc(-c2nn3c(-c4ccncc4)nnc3s2)cc1`, for which the TGI is 90.7 µM.

On to `O=C1/C(=C\c2cccc(Oc3ccccc3)c2)S(=O)(=O)C(c2ccccc2)N1Cc1ccccc1` (stereo not given), for which the TGI turned out to be 33.7 µM.

The compound `O=C(NC(Cc1ccc(I)cc1)C(=O)O)c1ccc(I)cc1` (stereo not given) returned a TGI of over 100 µM.

In turn, `O=[N+]([O-])/C(C(Cl)=C(Cl)Cl)=C(\Nc1cccc2cccnc12)SCc1ccccc1` yielded a TGI of 43.4 µM.

For the compound `C(=N\NC1=NCCCN1)/c1ccc2ccccc2c1`, the TGI worked out at 29.1 µM.

Turning to `O=C(NCCN1CCOCC1)c1ccc2cc(C(=O)N3CC(CCl)c4ccc([N+](=O)[O-])cc43)[nH]c2c1` (stereo not given), the TGI is over 100 µM.

Take `Cc1cc2[nH]c3[nH]c(=O)[nH]c(=O)c3c2cc1C`: the TGI is over 100 µM.

Compound `O=c1ccc2cc3ccc4cccc5ccc(c2o1)c3c45` displayed a TGI of over 100 µM.

Regarding `O=S(=O)(O)c1cc2ccc1/C=C\c1ccc(cc1S(=O)(=O)O)N=Nc1ccc(c(S(=O)(=O)O)c1)/C=C\c1ccc(cc1S(=O)(=O)O)N=N2`, the TGI was over 100 µM.

With `COc1ccc(CC(O)CN2CCOCC2)cc1` (stereo not given), the TGI is over 100 µM.

In the case of `COc1cc(C2SCC(=O)N2c2ccc(NC(=O)c3ccc(N4C(=O)CSC4c4cc(OC)c(OC)c(OC)c4)cc3)cc2)cc(OC)c1OC` (stereo not given), the TGI was over 100 µM.

In a further assay the test system is HT29 colon. The experiment in a line: NCI anticancer screen, dose series, 48 h.
Turning to `CS(=O)(=O)OCCn1c(=O)n(CCOS(C)(=O)=O)c(=O)n(CCOS(C)(=O)=O)c1=O`, the TGI is over 100 µM.

As for `CC(=O)O[C@]12CCCCCC1C1(O)C(O)CCC[C@H]12` (stereo not given in full), the TGI is over 100 µM.

In turn, `CC(C)(C)NC(=O)/C(=C\Sc1ccccc1)c1ccc2c(c1)OCO2` gave a TGI of 35.9 µM.

For the compound `COCOc1ccc(Cn2c(=O)n(C)c(=O)c3c2ncn3C)cc1[N+](=O)[O-]`, the TGI was over 100 µM.

As to `COC(=O)[C@]12CC[C@H]3CN(C(=O)OCc4ccccc4)[C@H]([C@H]31)[C@H](c1ccco1)N2S(=O)(=O)c1ccc(C)cc1`, the TGI is 58.7 µM.

Compound `CSc1c(C#N)c(N)n2c1C(=O)N(c1ccccc1)C2=S` displayed a TGI of over 100 µM.

On to `N#CCCN(CCC#N)c1ccc(/C=C2\N=C(c3ccccc3)N(c3ccc(Cl)cc3)C2=O)cc1`, for which the TGI is over 100 µM.

`NNC(=O)c1ccc[n+](CCc2ccccc2)c1`: the TGI was over 100 µM.

The compound `COc1cc(NS(C)(=O)=O)ccc1N1Cc2cnc3ccc4[nH]c(C)cc1c4c23` came in with a TGI of over 100 µM.

As for `Cc1cc(=O)c2c([nH]1)NS(=O)(=O)NC2=O`, the TGI was over 100 µM.

Consider `COc1cc([N+](=O)[O-])c(OC)cc1-c1nc2sc(Cl)cn2c1/C=N/Nc1ccccn1`, for which the GI50 is over 50 µM and the TGI was over 50 µM.

Turning to `CC(=O)N/N=C1\NC(=O)C[C@H]2[C@@H]3CC=C4C[C@@H](OC(C)=O)CC[C@]4(C)[C@H]3CC[C@]12C`, the TGI was over 100 µM.

The compound `C=C[C@@H]1C(CO)=CCC2[C@H]1CCC1C(C)(C)C(=O)CC[C@]21C` (stereo not given in full) registered a TGI of over 100 µM.

Turning to `COc1ccc2cc3c4cc5c(cc4cc[n+]3cc2c1OC)OCO5`, the TGI is over 100 µM.

Take `CCN(CCO)CC1COc2ccccc2O1` (stereo not given): the TGI was over 100 µM.

Turning to `O=c1oc(-c2ccc(O)c(O)c2)cc2cccc(O)c12`, the GI50 is 28.1 µM and the TGI was over 100 µM.

In the case of `C=CCNC(=S)/N=C/c1c(O)c2ccccc2oc1=O`, the TGI is over 100 µM.

`O=C(NCCCN(CCCCN(CCCNC(=O)C(F)(F)F)Cc1ccccc1)Cc1ccccc1)C(F)(F)F` had a TGI of 19.2 µM.

In turn, `CC(=O)N(C(C)=O)C1=C2c3ccccc3N(S(=O)(=O)c3ccccc3)C2n2c(=O)n(-c3ccccc3)c(=O)n2C1` (stereo not given) displayed a TGI of over 100 µM.

The compound `Clc1ccc(-c2nn3c(-c4ccncc4)nnc3s2)cc1` came in with a TGI of over 100 µM.

For the compound `O=C(NC(Cc1ccc(I)cc1)C(=O)O)c1ccc(I)cc1` (stereo not given), the TGI was over 100 µM.

`O=[N+]([O-])/C(C(Cl)=C(Cl)Cl)=C(\Nc1cccc2cccnc12)SCc1ccccc1` displayed a TGI of 48.5 µM.

Take `C(=N\NC1=NCCCN1)/c1ccc2ccccc2c1`: the TGI is 23 µM.

As for `O=C(NCCN1CCOCC1)c1ccc2cc(C(=O)N3CC(CCl)c4ccc([N+](=O)[O-])cc43)[nH]c2c1` (stereo not given), the TGI came out at 24.7 µM.

As for `Cc1cc2[nH]c3[nH]c(=O)[nH]c(=O)c3c2cc1C`, the TGI is over 100 µM.

The compound `O=c1ccc2cc3ccc4cccc5ccc(c2o1)c3c45` registered a TGI of over 100 µM.

For the compound `O=S(=O)(O)c1cc2ccc1/C=C\c1ccc(cc1S(=O)(=O)O)N=Nc1ccc(c(S(=O)(=O)O)c1)/C=C\c1ccc(cc1S(=O)(=O)O)N=N2`, the TGI was over 100 µM.

On to `COc1ccc(CC(O)CN2CCOCC2)cc1` (stereo not given), for which the TGI was over 100 µM.

In turn, `COc1cc(C2SCC(=O)N2c2ccc(NC(=O)c3ccc(N4C(=O)CSC4c4cc(OC)c(OC)c(OC)c4)cc3)cc2)cc(OC)c1OC` (stereo not given) gave a TGI of over 100 µM.

In the next assay the test system is K-562 leukemia. Put plainly: NCI anticancer screen, dose series, 48 h.
As for `CS(=O)(=O)OCCn1c(=O)n(CCOS(C)(=O)=O)c(=O)n(CCOS(C)(=O)=O)c1=O`, the TGI was over 100 µM.

In turn, `CC(=O)O[C@]12CCCCCC1C1(O)C(O)CCC[C@H]12` (stereo not given in full) yielded a TGI of over 100 µM.

Take `CC(C)(C)NC(=O)/C(=C\Sc1ccccc1)c1ccc2c(c1)OCO2`: the TGI is over 100 µM.

For the compound `COCOc1ccc(Cn2c(=O)n(C)c(=O)c3c2ncn3C)cc1[N+](=O)[O-]`, the TGI was over 100 µM.

As to `COC(=O)[C@]12CC[C@H]3CN(C(=O)OCc4ccccc4)[C@H]([C@H]31)[C@H](c1ccco1)N2S(=O)(=O)c1ccc(C)cc1`, the TGI is over 100 µM.

`CSc1c(C#N)c(N)n2c1C(=O)N(c1ccccc1)C2=S`: the TGI is over 100 µM.

`N#CCCN(CCC#N)c1ccc(/C=C2\N=C(c3ccccc3)N(c3ccc(Cl)cc3)C2=O)cc1` gave a TGI of over 100 µM.

The compound `BrC/C=C/C[P+](c1ccccc1)(c1ccccc1)c1ccccc1` gave a TGI of over 100 µM.

Turning to `NNC(=O)c1ccc[n+](CCc2ccccc2)c1`, the TGI is over 100 µM.

Take `COc1cc(NS(C)(=O)=O)ccc1N1Cc2cnc3ccc4[nH]c(C)cc1c4c23`: the TGI was over 100 µM.

Compound `Cc1cc(=O)c2c([nH]1)NS(=O)(=O)NC2=O` came in with a TGI of over 100 µM.

Take `COc1cc([N+](=O)[O-])c(OC)cc1-c1nc2sc(Cl)cn2c1/C=N/Nc1ccccn1`: the GI50 is over 50 µM and the TGI was over 50 µM.
